Laboratory results reported in US20150315188A1, “COMPOUNDS AND METHODS FOR TREATMENT OF HYPERTENSION” (MEDIVATION TECHNOLOGIES, INC., priority 2012, published 2015).
Each block holds one compound with its values, some of them ahead of it.

Key:
Set-up in all cases: purchased Milipore (Millipore)
[1] = target: T1, Human adrenergic α2A receptor (Homo sapiens, UniProt P08913); experiment: Radioligand binding, adrenergic α2A (Protocol Group B); conditions: for Ki: estimated Ki; for inhibition at 0.3 µM: 0.3 μM compound, read-out: Percentage inhibition of ligand binding, Adrenergic α2A (0.3 μM)
T1 sequence (P08913 1-465): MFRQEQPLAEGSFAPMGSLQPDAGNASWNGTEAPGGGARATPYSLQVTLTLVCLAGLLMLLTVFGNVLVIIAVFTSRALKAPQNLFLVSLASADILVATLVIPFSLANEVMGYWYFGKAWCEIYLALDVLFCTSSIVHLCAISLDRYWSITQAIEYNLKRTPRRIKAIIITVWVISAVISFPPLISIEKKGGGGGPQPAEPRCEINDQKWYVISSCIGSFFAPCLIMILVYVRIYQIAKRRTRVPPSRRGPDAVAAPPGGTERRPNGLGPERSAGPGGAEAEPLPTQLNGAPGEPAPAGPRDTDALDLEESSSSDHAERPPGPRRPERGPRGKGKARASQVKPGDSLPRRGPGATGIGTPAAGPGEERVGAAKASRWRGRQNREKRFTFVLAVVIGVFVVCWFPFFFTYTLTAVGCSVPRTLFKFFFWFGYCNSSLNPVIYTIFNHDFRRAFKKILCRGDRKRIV
How it was run: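 Compounds (1% DMSO vehicle, various concentrations) competed against 2 nM [^3H]MK-912 on recombinant receptor membranes for 60 min at 25° C, Tris-HCl pH 7.4 buffer with Mg2+, Ca2+, BSA. Bound radioligand filtered and counted; 10 μM rauwolscine set nonspecific binding. Values: percent inhibition of specific binding or estimated Ki.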

[2] = target: T2, Human adrenergic α1B receptor (Homo sapiens, UniProt P35368); experiment: Radioligand binding, adrenergic α1B (Protocol Group B); conditions: for Ki / inhibition at 0.1 µM / inhibition at 0.3 µM: Protocol Group B; for Ki: estimated Ki; for inhibition at 0.1 µM: 0.1 μM compound, read-out: Percentage inhibition of ligand binding, Adrenergic α1B (0.1 μM); for inhibition at 0.3 µM: 0.3 μM compound, read-out: Percentage inhibition of ligand binding, Adrenergic α1B (0.3 μM)
T2 sequence (P35368 1-520): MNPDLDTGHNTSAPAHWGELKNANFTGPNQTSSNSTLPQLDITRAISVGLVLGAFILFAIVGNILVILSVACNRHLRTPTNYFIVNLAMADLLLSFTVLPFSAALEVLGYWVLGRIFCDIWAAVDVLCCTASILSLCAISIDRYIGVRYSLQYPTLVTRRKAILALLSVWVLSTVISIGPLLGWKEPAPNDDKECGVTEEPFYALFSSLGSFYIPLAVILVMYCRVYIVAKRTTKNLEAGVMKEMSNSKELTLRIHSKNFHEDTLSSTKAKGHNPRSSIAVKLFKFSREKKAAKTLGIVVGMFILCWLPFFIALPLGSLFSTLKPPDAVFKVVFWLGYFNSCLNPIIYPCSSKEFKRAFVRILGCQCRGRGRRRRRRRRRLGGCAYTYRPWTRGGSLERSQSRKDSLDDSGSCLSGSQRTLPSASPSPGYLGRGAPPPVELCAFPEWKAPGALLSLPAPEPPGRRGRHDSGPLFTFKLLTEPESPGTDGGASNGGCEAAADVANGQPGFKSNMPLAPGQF
How it was run: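 Values are percent inhibition of specific [3H]prazosin (0.3 nM) binding or estimated Ki, from filtration counting. Human α1B recombinant membranes, Tris-HCl pH 7.4 buffer with MgCl2 and EDTA, 60 min at 25 °C, 1% DMSO vehicle; 10 μM prazosin defined nonspecific binding.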

[3] = target: T3, Human adrenergic α2B receptor (Homo sapiens, UniProt P18089); experiment: Radioligand binding, adrenergic α2B (Protocol Group B); conditions: for Ki: estimated Ki, read-out: Ki α2B; for inhibition at 0.01 µM: 10 nM compound, read-out: Percentage inhibition of ligand binding, Adrenergic α2B (10 nM); for inhibition at 0.03 µM: 30 nM compound, read-out: Percentage inhibition of ligand binding, Adrenergic α2B (30 nM)
T3 sequence (P18089 1-450): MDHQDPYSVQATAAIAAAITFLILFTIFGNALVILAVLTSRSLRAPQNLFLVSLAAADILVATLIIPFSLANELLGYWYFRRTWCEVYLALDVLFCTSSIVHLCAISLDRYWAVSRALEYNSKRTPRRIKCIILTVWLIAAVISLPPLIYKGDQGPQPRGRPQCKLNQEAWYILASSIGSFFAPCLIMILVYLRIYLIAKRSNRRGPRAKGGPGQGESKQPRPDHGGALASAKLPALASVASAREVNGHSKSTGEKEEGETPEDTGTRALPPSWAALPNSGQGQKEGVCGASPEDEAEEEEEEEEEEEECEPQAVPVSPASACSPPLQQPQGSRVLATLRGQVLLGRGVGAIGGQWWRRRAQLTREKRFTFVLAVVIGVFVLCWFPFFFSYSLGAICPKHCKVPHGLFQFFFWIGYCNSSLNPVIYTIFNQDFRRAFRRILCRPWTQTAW
How it was run: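 Compounds at various concentrations in 1% DMSO were tested on recombinant membranes in Tris-HCl pH 7.4 buffer containing MgCl2, CaCl2 and 0.2% BSA.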

- Ki ([1]; Protocol Group B): 13 nM
- Ki [2]: 35 nM
- Ki ([3]; Protocol Group B): 1.22 nM
Structure (SMILES): Cc1ccc2c(c1)c1c(n2CC(C)(O)c2ccncc2)CCN2CCCC12 (single isomer, unassigned) [13b]

- inhibition at 0.0032 µM ([1]; 3.2 nM compound, concentration series, read-out: Percentage inhibition of ligand binding, Adrenergic α2A, 3.2 nM): 8%
- inhibition at 0.01 µM ([1]; 10 nM compound, concentration series, read-out: Percentage inhibition of ligand binding, Adrenergic α2A, 10 nM): 12%
- inhibition at 0.03 µM ([1]; 0.03 μM compound, concentration series, read-out: Percentage inhibition of ligand binding, Adrenergic α2A, 0.03 μM): 27%
- inhibition at 0.1 µM ([1]; 0.1 μM compound, Protocol Group B, read-out: Percentage inhibition of ligand binding, Adrenergic α2A (0.1 μM)): 45%
- inhibition at 0.3 µM ([1]; Protocol Group B): 71%
- inhibition at 0.32 µM ([1]; 0.32 μM compound, concentration series, read-out: Percentage inhibition of ligand binding, Adrenergic α2A, 0.32 μM): 76%
- inhibition at 1 µM ([1]; 1 μM compound, concentration series, read-out: Percentage inhibition of ligand binding, Adrenergic α2A, 1 μM): 90%
- inhibition at 3.2 µM ([1]; 3.2 μM compound, concentration series, read-out: Percentage inhibition of ligand binding, Adrenergic α2A, 3.2 μM): 96%
- inhibition at 10 µM ([1]; 10 μM compound, concentration series, read-out: Percentage inhibition of ligand binding, Adrenergic α2A, 10 μM): 99%
- Ki ([1]; Protocol Group B): 55.9 nM
- inhibition at 0.0032 µM ([2]; 3.2 nM compound, concentration series, read-out: Percentage inhibition of ligand binding, Adrenergic α1B, 3.2 nM): 14%
- inhibition at 0.01 µM ([2]; 10 nM compound, concentration series, read-out: Percentage inhibition of ligand binding, Adrenergic α1B, 10 nM): 17%
- inhibition at 0.03 µM ([2]; 0.03 μM compound, concentration series, read-out: Percentage inhibition of ligand binding, Adrenergic α1B, 0.03 μM): 14%
- inhibition at 0.1 µM [2]: 45%
- inhibition at 0.3 µM [2]: 63%
- inhibition at 0.32 µM ([2]; 0.32 μM compound, concentration series, read-out: Percentage inhibition of ligand binding, Adrenergic α1B, 0.32 μM): 74%
- inhibition at 1 µM ([2]; 1 μM compound, concentration series, read-out: Percentage inhibition of ligand binding, Adrenergic α1B, 1 μM): 87%
- inhibition at 3.2 µM ([2]; 3.2 μM compound, concentration series, read-out: Percentage inhibition of ligand binding, Adrenergic α1B, 3.2 μM): 96%
- inhibition at 10 µM ([2]; 10 μM compound, concentration series, read-out: Percentage inhibition of ligand binding, Adrenergic α1B, 10 μM): 99%
- Ki [2]: 65.8 nM
- inhibition at 30 pM ([3]; 0.03 nM compound, concentration series, read-out: Percentage inhibition of ligand binding, Adrenergic α2B, 0.03 nM): 19%
- inhibition at 0.0001 µM ([3]; 0.1 nM compound, concentration series, read-out: Percentage inhibition of ligand binding, Adrenergic α2B, 0.1 nM): 6%
- inhibition at 0.00032 µM ([3]; 0.32 nM compound, concentration series, read-out: Percentage inhibition of ligand binding, Adrenergic α2B, 0.32 nM): 14%
- inhibition at 0.001 µM ([3]; 1 nM compound, concentration series, read-out: Percentage inhibition of ligand binding, Adrenergic α2B, 1 nM): 29%
- inhibition at 0.0032 µM ([3]; 3.2 nM compound, concentration series, read-out: Percentage inhibition of ligand binding, Adrenergic α2B, 3.2 nM): 78%
- inhibition at 0.01 µM ([3]; Protocol Group B): 94%
- inhibition at 0.03 µM ([3]; Protocol Group B): 97%
- inhibition at 0.1 µM ([3]; 0.1 μM compound, Protocol Group B, read-out: Percentage inhibition of ligand binding, Adrenergic α2B (0.1 μM)): 100%
- Ki ([3]; Protocol Group B): 1.03 nM
Structure (SMILES): OC(Cn1c2c(c3cc(F)ccc31)C1CCCN1CC2)c1ccncc1 (single isomer, unassigned) [18b]

- Percentage inhibition of ligand binding, Adrenergic α2A (0.1 μM) ([1]; 0.1 μM compound, Protocol Group B, 0.1 µM): 57%
- inhibition at 0.3 µM ([1]; Protocol Group B): 77%
- Ki ([1]; Protocol Group B): 66.1 nM
- inhibition at 0.1 µM [2]: 71%
- inhibition at 0.3 µM [2]: 92%
- Ki [2]: 23 nM
- inhibition at 0.01 µM ([3]; Protocol Group B): 79%
- inhibition at 0.03 µM ([3]; Protocol Group B): 93%
- Ki ([3]; Protocol Group B): 2.95 nM
Structure (SMILES): OC(Cn1c2c(c3cc(Cl)cc(F)c31)C1CCCN1CC2)c1ccncc1 (single isomer, unassigned) [135a]
